Data on four substances can be found in US20060205037A1, “Modified transferrin fusion proteins” (priority 2003, published 2006).

The conditions of data set [1]: blood; cited from earlier work.
Data set [2] deals with c-Fos. In words: c-Fos activation in brain after IP injection. The data set is classed as in vivo, mice. As for the experimental part:
(§1) Briefly, mice that received IP injections were anesthetized with isoflurane 2 h later and the mice that received ICV injections were anesthetized 1.5 and 24 h later. Intracardiac perfusion with ice-cold 4% paraformaldehyde was immediately carried out. Brains were removed immediately at the end of perfusion, kept in ice-cold 4% parafor maldehyde for 72 h, and then transferred to a solution containing 4% paraformaldehyde and 25% sucrose until they floated. Each brain as cut into 30 μm sections using a sliding microtome with a freezing stage. Brain sections from each animal were placed in a 12-well plate and then processed for immunocytochemistry. The free-floating sections from each animal were first incubated in 0.3% H2O2 for 30 min and then washed 3 times in PBS for 5 min/rinse. Thereafter the sections were incubated in blocking serum (normal goat serum/PBS/0.1% Triton) for 45 min at room temperature. The sections were stained for c-Fos with an antibody directed against the amino acid residues 4-17 in rabbit anti-human c-Fos (Calbiochem, 1:30,000) for 48 h at 4° C. The sections were then washed 6 times with PBS/0.1% Triton before incubation for 1.5 h at room temperature with biotinylated goat anti-rabbit IgG (1:600) in blocking serum (Vector Laboratories). Thereafter the sections were visualized with DAB (Vectastain ABC kit) and developed until the color reached the required intensity in the control sections. The reaction was stopped by immersion of the slides in distilled water. After the staining was completed, sections were mounted on superfrost slides (Fisher Scientific), air-dried for 1-2 days and coverslipped with Permount. Sections were examined using light microscopy to identify c-Fos-positive cells.

Data set [3] is described as follows: c-Fos activation in brain after IP injection. The data set is classed as in vivo, mice. The following applies: IP 1 nmol/kg. As for the experimental part:
as §1

In data set [4] the test system is db/db mice. Nature of the data set: food intake and post-prandial blood glucose, db/db mice. Format: in vivo. The procedure:
(§2) Mice (N=5 per group) were conditioned to eat once daily (9-10 am) for five days. […] Food intake and blood glucose levels were measured 2, 4, 7 and 24 h after peptide administration.

Data set [5] in a line: GLP-1-Tf in serum of cynomolgus monkeys (Example 4). Format: in vivo, cynomolgus monkeys (Macaca fascicularis). The following applies: cAMP in CHO/GLP-1R.
The next data set has as its system RIN 1046-38 cells. Nature of the data set: insulin secretion in RIN 1046-38 cells. The data set is classed as cell-based. The following applies: rat insulinoma cells, concentration-dependent. The procedure: Rat insulinoma cell line, RIN1046-38 cells, was obtained from Dr. Samuel A. Clark and cultured with 5% CO2 at 37° C. in M199 medium (Cellgro) as previously described (Wang et al., 2001, Endocrinology, 142: 1820-1827). […] Exendin-9-39 (1 μmol/l: Bachem), an inhibitor of the GLP-1R. was also added overnight to one set of experiments. The supernatant was then collected and saved at −80° C. for determination of insulin content by ELISA (Crystal Chems). Cells were lysed and the protein content was quantified using the Bradford method.

The test system of data set [6] is diabetic db/db mice.
Procedure: Male diabetic db/db mice (C57BLKS/J-Lepr^db/Lepr^db) lacking a functioning leptin receptor and their non-diabetic heterozygous littermates were purchased at 4 weeks of age from Jackson Laboratories (Bar Harbor). They were housed, two per cage and fed ad libitum for at least five days before any testing. The same mice were caged together for the duration of the studies.
Plasma insulin levels were measured at 1 and 4 hours.
The test system of data set [7] is diabetic db/db mice. In words: overnight fast and IPGTT in diabetic mice after SC administration. The data set is classed as in vivo. The procedure: A group of diabetic mice were given Tf or GLP-1-Tf via SC administration at 9 pm, fasted overnight and an IPGTT performed the next morning. The fasted Tf-treated animals had lower fasting blood glucose than ad libitum fed animals (238±39 versus 358±23 mg/dl; compare 0 time/fasted animals of FIG. 10c with 0 time/fed animals of FIG. 10a), and additionally, the animals given 1 or […] had lower fasting blood glucose (132±27 mg/dl) than those given Tf alone.

The subject of data set [8] is non-diabetic mice. In words: blood glucose after SC administration, ad libitum fed non-diabetic mice. Format: in vivo.
Data set [9] concerns non-diabetic mice. In words: IPGTT in non-diabetic mice after IP administration. The following applies: IP 1 and 10 mg/kg. Format: in vivo. As for the experimental part:
Intraperitoneal (IP) glucose tolerance testing (IPGTT) (0.5 g/kg body weight) was carried out after an overnight fast in non-diabetic mice. Tf and GLP-1-Tf were administered IP 30 min before the glucose injection. Blood glucose levels (Glucometer Elite, Bayer) were measured at 0, and 30 and 60 min and plasma insulin levels at 0 and 30 min after the IPGTT.

For a further data set, the system named is isolated rat islets. In words: insulin secretion in isolated rat islets. The data set is classed as cell-based. The conditions noted are these: concentration-dependent. The procedure:
Islets from Sprague-Dawley rats were isolated as we previously described, with some modification (Wang et al., 1997, J. Clin. Invest. 99: 2883-2889). Briefly, pancreata were digested by Collagenase Type XI (Sigma) and islets separated through a Ficoll-Paque gradient (Amersham Biosciences). The isolated islets were washed several times using Hanks Balanced Salts Solution (Biosource) containing 0.2% bovine serum albumin (BSA, Sigma), hand-picked and cultured overnight with 5% CO2 at 37° C. in M199 medium supplemented with 5 mM glucose. Rat islets were then treated similarly to (30-40 per well) to RIN cells as described above.

For data set [10], the system named is db/db mice. Nature of the data set: β-cell proliferation (BrdU) and β-cell mass in db/db mice. The conditions noted are these: for increase in total β-cell mass: 10 mg/kg. Format: in vivo. The procedure:
db/db mice, 6 per time point, received one IP injection of Tf (10 mg/kg) or GLP-1-Tf (10 mg/kg) and were sacrificed 1, 2 and 3 days later for measurement of β-cell proliferation and 3, 5, 8 and 10 days later for measurement of islet mass. Sixty mg/kg 5-bromo-2-deoxyuridine (BrdU, Sigma) was injected IP 6 hours before sacrifice. BrdU is a thymidine analog that is incorporated during S-phase of cell mitosis. Pancreata were removed, fixed overnight in 4% buffered formalin, processed for embedding in paraffin and histological sections (4 μm) mounted on poly-1-lysine-coated glass slides. BrdU was detected with a BrdU antibody (Sigma, 1:500 and also confirmed with Zymed antibody, 1:250) and BrdU staining kit (Zymed Laboratories Inc). Five to six hundred islets from each condition were then visualized and the number of islets that contained BrdU+ cells as well as the percent BrdU+ nuclei per total number of islet cells was quantified. For insulin staining and determination of β-cell mass histological sections were treated with a guinea-pig insulin antibody (Linco). Antibody binding was visualized with 3,3-diaminobenzidine (DAB) and sections counterstained with hematoxylin (Vectastain ABC kit, Vector Laboratories, using goat anti-guinea pig IgG). The sections were examined using a video camera connected to a computer with imaging software. Sectioned tissue images were acquired through a 2.5× objective of a phase contrast light microscope (Carl Zeiss) and digitized by means of a Sony Power HAD digital camera (an average of 20-30 images per section). The total pancreatic area and β-cell positive area for every image were quantified using MetaMorph 4.6.3 software (Universal Imaging Inc., West Chester).

Data set [11] deals with non-diabetic mice. In words: food intake and post-prandial blood glucose, non-diabetic mice. Format: in vivo. The procedure:
as §2

In data set [12] the test system is c-Fos. In words: c-Fos activation in brain after ICV injection. Format: in vivo, mice. As for the experimental part:
Briefly, mice that received IP injections were anesthetized with isoflurane 2 h later and the mice that received ICV injections were anesthetized 1.5 and 24 h later. Intracardiac perfusion with ice-cold 4% paraformaldehyde was immediately carried out. Brains were removed immediately at the end of perfusion, kept in ice-cold 4% parafor maldehyde for 72 h, and then transferred to a solution containing 4% paraformaldehyde and 25% sucrose until they floated. Each brain as cut into 30 μm sections using a sliding microtome with a freezing stage. Brain sections from each animal were placed in a 12-well plate and then processed for immunocytochemistry. The free-floating sections from each animal were first incubated in 0.3% H2O2 for 30 min and then washed 3 times in PBS for 5 min/rinse. Thereafter the sections were incubated in blocking serum (normal goat serum/PBS/0.1% Triton) for 45 min at room temperature. The sections were stained for c-Fos with an antibody directed against the amino acid residues 4-17 in rabbit anti-human c-Fos (Calbiochem, 1:30,000) for 48 h at 4° C. […]
In another series of experiments, Tf and GLP-1-Tf were administered intracerebrovenitricular (ICV) and c-Fos activation assessed 1.5 and 24 hours later.

[13] abbreviates: compared to hTf-treated animals.
Setting [14] is: 10 mg/kg, 2 h after administration.

For the substance “Carbohydrate deficient transferrin: transferrin form elevated in the blood of alcoholic individuals”, the half life in data set [1] was 14 to 17 days.
As to exendin-4 [reference compound], the “brain areas with c-Fos activation” value with c-Fos [2] (IP 1 nmol/kg) is “activated similar areas to GLP-1-Tf in all injected animals”. In addition, the “AP c-Fos response compared to GLP-1-Tf” value in data set [3] is reported as “much more robust”. Further, in the data set with db/db mice [4] (1 nmol/kg IP), the “food intake in the remaining 17 h” value was “caused a decrease in food intake” and the “time for which essentially all measurable food consumption was prevented” value amounted to 7 h.
With “glycosylated transferrin: glycosylated serum transferrin”, in [1], the half life is 7 to 10 days.
As to “pREX0585: nL GLP-1 (7-37; A8G, K34A) (PEAPTD)2 mTf; mTf lacking N-glycosylation at sites 413 and 611”, in data set [5], the “activity of GLP-1-Tf in serum from the injected monkeys on CHO/GLP-1R” value is given as “biologically active”. The insulin secretion result is on record as “stimulate insulin secretion” with RIN 1046-38 cells, “enhanced insulin secretion” in the data set with non-diabetic mice [9] (30 min before glucose) and “stimulate insulin secretion” in the data set on isolated rat islets. Further, the “plasma insulin levels at 1 hour” value in the data set on diabetic db/db mice [6] (SC 0.1 mg/kg) was “increased plasma insulin levels”. Besides, the “beginning of blood glucose effect after injection” value in the data set on diabetic db/db mice [6] (SC 1 and 10 mg/kg) turned out to be 1 h. Also, in the data set with diabetic db/db mice [6] (SC 1 and 10 mg/kg), the “duration of increased plasma insulin levels” value is ≥ 4 h. The blood glucose in the data set on diabetic db/db mice [6] (SC both 1 and 10 mg/kg, ad libitum, from 358±23) worked out at 115 ± 18 mg/dL. Besides, the “duration of effect on blood glucose” value in the data set with diabetic db/db mice [6] (SC highest dose) is recorded as “at least 12 hours”. Further, the “duration of blood glucose lowering” value in the data set with diabetic db/db mice [6] (SC low dose 0.1 mg/kg) came out at 4 h. This substance also had a fasting blood glucose in the data set on diabetic db/db mice [7] (SC at 9 pm, fasted overnight, GLP-1-Tf 1 or 10 mg) of 132 ± 27 mg/dL. Besides, in the data set with diabetic db/db mice [7] (setting [13]), the “glucose levels after the IPGTT” value is reported as “lower glucose levels”. The “plasma insulin levels after the IPGTT” value with diabetic db/db mice [7] (setting [13]) is given as “higher plasma insulin levels”. The “time for blood glucose to rise to pre-administration levels” value in the data set on non-diabetic mice [8] was ≤ 24 h. Besides, in the data set on non-diabetic mice [8] (ad libitum fed), the “blood glucose concentration and insulin secretion” value was “dose-dependently reduced blood glucose concentration and increased insulin secretion”. In the data set on non-diabetic mice [8] (higher dose 10 mg/kg), the “persistence of low blood glucose” value is given as “up to 36 hours”. In the data set with non-diabetic mice [8] (within 3 hours of administration), this substance came in with a blood glucose level of 70 mg/dL. Moreover, the peak blood glucose entry with non-diabetic mice [9] (IPGTT) is reported as “decreased”. In the data set with c-Fos [2] (1 mg/kg), the “c-Fos activation, AP” value is 0/6. Besides, the “c-Fos activation, NTS” value in the data set on c-Fos [2] (1 mg/kg) is listed as 6/6. Besides, the “c-Fos activation, PVH” value in the data set on c-Fos [2] (1 mg/kg) is 6/6. For the same substance, the “c-Fos activation, area postrema (AP)” value in the data set on c-Fos [2] (setting [14]) is given as 4/6. Further, the “c-Fos activation, nuclei of the solitary tract (NTS)” value with c-Fos [2] (setting [14]) is 6/6. In addition, the “c-Fos activation, paraventricular nuclei of the hypothalamus (PVH)” value with c-Fos [2] (setting [14]) is recorded as 6/6. In addition, the “post-prandial blood glucose levels” value in the data set with db/db mice [4] (0.1, 1 and 10 mg/kg, compared to Tf treatment) is given as “lowered post-prandial blood glucose levels”; in the data set with non-diabetic mice [11] (0.1, 1 and 10 mg/kg, compared to Tf only), “lower”. The “time for which food intake was decreased by approximately half” value in the data set on db/db mice [4] (IP 1 and 10 mg/kg) is 2 h; with non-diabetic mice [11] (IP 1 mg/kg), 2 h; in the data set on non-diabetic mice [11] (IP 10 mg/kg), “up to 7 h”. Also, in the data set with db/db mice [10] (10 mg/kg IP, compared to Tf), the “number of BrdU+ nuclei in islets 24 hours after injection” value is “clear increase in the number of BrdU+ nuclei”. For the same substance, the “islets with 1 or more BRDU+ nuclei” value in the data set on db/db mice [10] (10 mg/kg IP, third day) is listed as “all islets”. The “increase in BRDU+ nuclei” value with db/db mice [10] (10 mg/kg IP, third day, vs Tf, p<0.01) is listed as 4.7 fold. The “increase in total β-cell mass” value in the data set with db/db mice [10] (3 days, compared to Tf) is 1.7 fold; in the data set on db/db mice [10] (5 days, compared to Tf), 2.2 fold; with db/db mice [10] (8 days, compared to Tf) it was 4.1 fold; in the data set on db/db mice [10] (10 days, compared to Tf), 4.3 fold. Moreover, the “c-Fos activation ninety minutes after ICV injection” value with c-Fos [12] (1.5 h) was “c-Fos activation had occurred in PVH and NTS but not AP”. Moreover, the “c-Fos activation 24 h after ICV injection” value in the data set on c-Fos [12] (24 h) is reported as “not present in any of the three brain regions”.
